Measurements: ChEMBL document CHEMBL4507264, “Data for DCP probe BAY-7598” (2021)

Key:
Mus musculus = species: Mus musculus; experiment: Inhibition of Interleukin IL-1 at 10 µM in the Eurofins-Panlabs radioligand binding assay (Eurofins_assay_243520); parameters: ligand concentration 0.1 nM; settings: Compound concentration 10.0 uM
[1] = molecular target: T1, 5-hydroxytryptamine receptor 1A (Homo sapiens) (UniProt P08908); settings: Compound concentration 10.0 uM
T1 sequence (whole entry): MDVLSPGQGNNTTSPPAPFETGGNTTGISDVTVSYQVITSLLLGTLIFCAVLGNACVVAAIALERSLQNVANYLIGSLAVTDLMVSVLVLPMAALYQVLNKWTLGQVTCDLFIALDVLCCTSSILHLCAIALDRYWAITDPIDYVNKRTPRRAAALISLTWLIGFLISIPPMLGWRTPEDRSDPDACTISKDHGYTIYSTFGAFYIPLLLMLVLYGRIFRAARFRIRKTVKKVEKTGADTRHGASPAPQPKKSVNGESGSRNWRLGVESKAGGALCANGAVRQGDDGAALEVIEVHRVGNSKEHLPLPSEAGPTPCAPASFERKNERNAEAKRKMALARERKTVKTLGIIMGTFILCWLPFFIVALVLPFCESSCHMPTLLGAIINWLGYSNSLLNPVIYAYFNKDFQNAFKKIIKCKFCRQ

[2] = molecular target: 5-hydroxytryptamine receptor 2B (Homo sapiens) (UniProt P41595); settings: Compound concentration 10.0 uM
Sequence of 5-hydroxytryptamine receptor 2B (Homo sapiens) (P41595 whole entry): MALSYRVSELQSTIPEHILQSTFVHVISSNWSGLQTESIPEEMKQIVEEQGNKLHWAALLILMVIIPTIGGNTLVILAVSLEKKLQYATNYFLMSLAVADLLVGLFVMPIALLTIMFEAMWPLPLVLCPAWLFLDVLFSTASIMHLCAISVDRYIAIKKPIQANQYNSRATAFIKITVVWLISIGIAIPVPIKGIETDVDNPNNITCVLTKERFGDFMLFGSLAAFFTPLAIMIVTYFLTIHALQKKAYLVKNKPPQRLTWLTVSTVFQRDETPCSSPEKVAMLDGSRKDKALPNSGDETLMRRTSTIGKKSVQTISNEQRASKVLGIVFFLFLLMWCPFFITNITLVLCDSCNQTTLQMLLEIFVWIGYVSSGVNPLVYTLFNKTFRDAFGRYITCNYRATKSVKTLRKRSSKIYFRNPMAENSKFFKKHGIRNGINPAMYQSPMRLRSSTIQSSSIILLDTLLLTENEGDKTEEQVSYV

hERG (KCNH2) = hERG (KCNH2) (Homo sapiens, UniProt Q12809); experiment: Inhibition of Potassium Channel hERG at 10 µM in the Eurofins-Panlabs radioligand binding assay (Eurofins_assay_265900); parameters: ligand concentration 1.5 nM, non-specific ligand with concentration Astemizole, incubation time 60 min, incubation temperature 25 °C; settings: HEK-293 cells expressing human recombinant hERG, probe [3H] Astemizole, compound concentration 10 uM
Sequence of hERG (KCNH2) (Q12809 whole entry): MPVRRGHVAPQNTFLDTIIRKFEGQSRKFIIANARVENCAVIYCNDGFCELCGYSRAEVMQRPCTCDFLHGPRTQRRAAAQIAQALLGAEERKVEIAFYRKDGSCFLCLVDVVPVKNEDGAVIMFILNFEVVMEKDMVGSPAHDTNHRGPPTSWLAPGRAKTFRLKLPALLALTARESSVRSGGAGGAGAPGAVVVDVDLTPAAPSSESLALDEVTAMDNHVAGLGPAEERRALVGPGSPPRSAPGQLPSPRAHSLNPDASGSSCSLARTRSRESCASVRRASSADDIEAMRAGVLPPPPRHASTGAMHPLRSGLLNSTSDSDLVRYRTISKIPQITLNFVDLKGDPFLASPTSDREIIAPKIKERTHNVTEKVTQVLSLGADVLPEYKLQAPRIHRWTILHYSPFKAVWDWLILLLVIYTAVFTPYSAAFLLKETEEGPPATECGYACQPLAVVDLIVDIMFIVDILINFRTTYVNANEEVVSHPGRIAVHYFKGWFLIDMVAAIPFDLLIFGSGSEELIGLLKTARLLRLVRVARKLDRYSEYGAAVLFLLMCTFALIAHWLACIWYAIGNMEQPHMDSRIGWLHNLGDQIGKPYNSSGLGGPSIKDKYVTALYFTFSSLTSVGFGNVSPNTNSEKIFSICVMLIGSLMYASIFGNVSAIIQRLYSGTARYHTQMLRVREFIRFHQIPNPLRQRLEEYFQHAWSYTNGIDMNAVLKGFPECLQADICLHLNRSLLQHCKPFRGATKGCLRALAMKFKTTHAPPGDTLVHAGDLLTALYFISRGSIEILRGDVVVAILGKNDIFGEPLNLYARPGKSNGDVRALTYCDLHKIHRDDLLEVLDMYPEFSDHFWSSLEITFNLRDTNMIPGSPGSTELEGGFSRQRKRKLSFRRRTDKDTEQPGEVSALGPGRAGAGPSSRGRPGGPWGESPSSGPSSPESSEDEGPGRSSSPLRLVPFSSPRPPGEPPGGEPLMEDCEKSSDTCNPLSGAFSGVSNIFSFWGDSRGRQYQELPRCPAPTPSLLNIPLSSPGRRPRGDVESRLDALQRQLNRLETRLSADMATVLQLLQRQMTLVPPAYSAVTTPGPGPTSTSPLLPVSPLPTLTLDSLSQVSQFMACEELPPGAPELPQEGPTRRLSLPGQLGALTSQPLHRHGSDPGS

[3] = molecular target: Glutamate NMDA receptor (Rattus norvegicus) (UniProt P35439+Q00959+Q00960+Q00961+Q62645+Q8VHN2+Q9R1M7); settings: Compound concentration 10.0 uM
[4] = molecular target: Adenosine receptor A2a (Homo sapiens) (UniProt P29274); settings: Compound concentration 10.0 uM
Sequence of Adenosine receptor A2a (Homo sapiens) (P29274 whole entry): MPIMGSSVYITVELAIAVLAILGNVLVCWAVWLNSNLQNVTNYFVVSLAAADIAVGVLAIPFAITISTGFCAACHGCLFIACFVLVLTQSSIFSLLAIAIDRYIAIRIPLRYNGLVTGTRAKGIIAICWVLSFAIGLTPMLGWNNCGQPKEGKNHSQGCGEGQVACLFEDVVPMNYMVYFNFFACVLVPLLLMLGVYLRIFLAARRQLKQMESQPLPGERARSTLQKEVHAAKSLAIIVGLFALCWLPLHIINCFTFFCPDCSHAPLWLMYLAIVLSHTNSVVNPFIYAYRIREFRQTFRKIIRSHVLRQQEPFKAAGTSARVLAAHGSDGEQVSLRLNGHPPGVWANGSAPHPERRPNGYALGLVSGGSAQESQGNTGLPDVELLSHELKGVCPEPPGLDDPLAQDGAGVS

[5] = molecular target: T2, D(4) dopamine receptor (Homo sapiens) (UniProt P21917); experiment: Inhibition of Dopamine D4.2 at 10 µM in the Eurofins-Panlabs radioligand binding assay (Eurofins_assay_219900); parameters: ligand concentration 0.5 nM; settings: Compound concentration 10.0 uM
T2 sequence (whole entry): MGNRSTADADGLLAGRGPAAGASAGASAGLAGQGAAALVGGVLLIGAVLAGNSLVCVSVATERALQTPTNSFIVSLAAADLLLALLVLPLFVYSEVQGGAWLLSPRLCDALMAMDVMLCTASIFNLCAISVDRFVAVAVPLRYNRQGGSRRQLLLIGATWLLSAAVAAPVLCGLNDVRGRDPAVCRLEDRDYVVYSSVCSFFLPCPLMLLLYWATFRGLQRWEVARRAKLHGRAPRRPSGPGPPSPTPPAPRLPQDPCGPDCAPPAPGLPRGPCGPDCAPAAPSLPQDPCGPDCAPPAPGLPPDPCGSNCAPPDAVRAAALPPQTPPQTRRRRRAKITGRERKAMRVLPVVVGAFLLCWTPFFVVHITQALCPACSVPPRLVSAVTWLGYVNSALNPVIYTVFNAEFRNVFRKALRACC

[6] = molecular target: L-type calcium channel, benzothiazepine site (Cav1.2 alpha-1C) (Homo sapiens, UniProt Q13936); experiment: Inhibition of Calcium Channel L-Type, Benzothiazepine at 10 µM in the Eurofins-Panlabs radioligand binding assay (Eurofins_assay_214510); parameters: ligand concentration 2 nM, non-specific ligand with concentration 10 µM Diltiazem, incubation time 3h, incubation temperature 4 °C; settings: male, Wistar, rat, rat whole brain preparation, probe [3H] Diltiazem; compound concentration 10 uM; target entry is the homologue from another species
Sequence of L-type calcium channel, benzothiazepine site (Cav1.2 alpha-1C) (Q13936 whole entry): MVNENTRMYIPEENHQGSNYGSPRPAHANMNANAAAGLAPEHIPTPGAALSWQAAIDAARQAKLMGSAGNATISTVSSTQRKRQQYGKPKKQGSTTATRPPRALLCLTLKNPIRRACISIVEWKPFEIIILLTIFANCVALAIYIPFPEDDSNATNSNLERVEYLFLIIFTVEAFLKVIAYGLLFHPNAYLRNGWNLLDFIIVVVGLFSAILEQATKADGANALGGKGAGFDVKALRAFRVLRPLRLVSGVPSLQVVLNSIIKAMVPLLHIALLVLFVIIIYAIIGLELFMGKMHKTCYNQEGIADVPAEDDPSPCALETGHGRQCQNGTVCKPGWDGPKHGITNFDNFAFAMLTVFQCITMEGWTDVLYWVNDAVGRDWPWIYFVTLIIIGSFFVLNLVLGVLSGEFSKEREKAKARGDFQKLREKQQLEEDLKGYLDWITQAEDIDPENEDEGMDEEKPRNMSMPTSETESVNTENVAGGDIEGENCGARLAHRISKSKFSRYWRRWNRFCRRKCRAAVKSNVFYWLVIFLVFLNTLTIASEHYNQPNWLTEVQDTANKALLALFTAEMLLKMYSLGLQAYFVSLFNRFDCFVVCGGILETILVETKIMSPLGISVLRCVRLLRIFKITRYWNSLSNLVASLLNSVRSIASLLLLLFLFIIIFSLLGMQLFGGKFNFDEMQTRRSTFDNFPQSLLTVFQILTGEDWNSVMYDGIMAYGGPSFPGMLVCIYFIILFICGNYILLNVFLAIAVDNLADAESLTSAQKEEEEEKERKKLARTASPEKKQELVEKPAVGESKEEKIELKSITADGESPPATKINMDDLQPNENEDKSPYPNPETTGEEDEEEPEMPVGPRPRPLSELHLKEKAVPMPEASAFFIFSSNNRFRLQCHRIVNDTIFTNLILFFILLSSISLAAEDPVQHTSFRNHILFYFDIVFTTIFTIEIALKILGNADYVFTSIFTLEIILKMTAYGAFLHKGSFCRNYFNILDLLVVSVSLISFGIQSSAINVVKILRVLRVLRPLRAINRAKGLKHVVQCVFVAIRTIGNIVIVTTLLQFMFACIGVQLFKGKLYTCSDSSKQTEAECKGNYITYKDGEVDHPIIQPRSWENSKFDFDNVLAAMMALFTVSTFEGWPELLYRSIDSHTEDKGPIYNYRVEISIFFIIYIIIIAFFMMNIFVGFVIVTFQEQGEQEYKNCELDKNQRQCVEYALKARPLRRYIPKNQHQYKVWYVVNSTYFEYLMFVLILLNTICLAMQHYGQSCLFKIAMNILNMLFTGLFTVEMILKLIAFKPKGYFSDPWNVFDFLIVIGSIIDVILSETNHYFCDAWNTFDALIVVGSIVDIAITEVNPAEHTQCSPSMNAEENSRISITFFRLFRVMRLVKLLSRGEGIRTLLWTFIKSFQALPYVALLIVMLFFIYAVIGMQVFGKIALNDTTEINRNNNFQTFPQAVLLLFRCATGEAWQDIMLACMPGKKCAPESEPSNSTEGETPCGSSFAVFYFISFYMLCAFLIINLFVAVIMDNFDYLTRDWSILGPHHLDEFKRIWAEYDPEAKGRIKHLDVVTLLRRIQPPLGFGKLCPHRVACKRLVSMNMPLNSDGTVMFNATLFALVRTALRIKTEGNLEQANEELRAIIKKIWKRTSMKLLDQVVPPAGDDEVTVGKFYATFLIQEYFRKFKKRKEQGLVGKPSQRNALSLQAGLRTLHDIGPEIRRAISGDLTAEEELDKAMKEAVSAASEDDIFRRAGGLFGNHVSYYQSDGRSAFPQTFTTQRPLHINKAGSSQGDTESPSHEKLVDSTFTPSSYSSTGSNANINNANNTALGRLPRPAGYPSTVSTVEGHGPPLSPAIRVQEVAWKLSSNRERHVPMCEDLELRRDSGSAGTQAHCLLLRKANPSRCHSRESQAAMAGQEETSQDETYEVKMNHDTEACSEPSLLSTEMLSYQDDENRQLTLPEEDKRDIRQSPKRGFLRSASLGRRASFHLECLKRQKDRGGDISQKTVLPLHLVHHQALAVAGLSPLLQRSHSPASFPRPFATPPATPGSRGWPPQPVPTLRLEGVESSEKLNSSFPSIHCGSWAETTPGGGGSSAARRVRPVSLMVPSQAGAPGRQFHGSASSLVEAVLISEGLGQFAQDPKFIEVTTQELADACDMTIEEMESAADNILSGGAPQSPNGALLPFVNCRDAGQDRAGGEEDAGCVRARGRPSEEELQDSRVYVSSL

[7] = molecular target: D(1A) dopamine receptor (Homo sapiens) (UniProt P21728); settings: Compound concentration 10.0 uM
Sequence of D(1A) dopamine receptor (Homo sapiens) (P21728 whole entry): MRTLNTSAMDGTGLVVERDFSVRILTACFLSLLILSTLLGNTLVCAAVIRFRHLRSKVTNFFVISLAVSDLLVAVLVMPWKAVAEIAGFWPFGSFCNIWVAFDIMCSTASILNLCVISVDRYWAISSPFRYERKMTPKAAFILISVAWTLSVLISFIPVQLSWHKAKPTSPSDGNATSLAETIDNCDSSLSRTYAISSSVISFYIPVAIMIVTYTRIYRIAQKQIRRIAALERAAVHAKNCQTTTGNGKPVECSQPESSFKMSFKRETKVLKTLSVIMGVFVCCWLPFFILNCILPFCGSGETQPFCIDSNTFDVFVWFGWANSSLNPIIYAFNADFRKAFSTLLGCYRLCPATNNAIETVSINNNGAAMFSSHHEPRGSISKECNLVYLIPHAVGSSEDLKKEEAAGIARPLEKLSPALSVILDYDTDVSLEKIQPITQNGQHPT

[8] = molecular target: B2 bradykinin receptor (Homo sapiens) (UniProt P30411); experiment: Bradykinin B2 Eurofins-Panlabs radioligand binding assay; settings: Compound concentration 10.0 uM

## O=C(O)[C@H]1[C@H](Cn2nnc3ccccc3c2=O)CC[C@@H]1C(=O)c1ccc(OCCC2CCOCC2)cc1 [BAY-7598]
Mus musculus
  inhibition: 0%
[1]
  inhibition: -9%
[2]
  inhibition: 4%
hERG (KCNH2)
  inhibition at 60 min, 10 µM: 7% (not active)
[3]
  inhibition: 9%
[4]
  inhibition: 7%
[5]
  inhibition: -2%
[6]
  inhibition at 3 h, 10 µM: -9% (not active)
[7]
  inhibition: 3%
[8]
  inhibition: -10%
